Test results taken from ChEMBL document CHEMBL1201862, “PubChem BioAssay data set” (2004).
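Compound exposure: 48 hours, 5 concentrations, 96-well plates. Abbreviation: GI50, concentration required for 50% inhibition of growth.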 Calls of active or inactive are those of the source. Rule as the data show it: active = GI50 up to about 1.1 µM and inactive = higher.

Tests used:
Experiment in all cases: NCI-60 cell line screen, 48 h
NCI-H23 = test system: NCI-H23
BT-549 = test system: BT-549
CAKI-1 = test system: CAKI-1
NCI-H460 = test system: NCI-H460
MOLT-4 = test system: MOLT-4
OVCAR-8 = test system: OVCAR-8
KM12 = test system: KM12
COLO 205 = test system: COLO 205
A549 = test system: A549
T47D = test system: T47D
NCI-H226 = test system: NCI-H226
DU-145 = test system: DU-145
SNB-19 = test system: SNB-19
MDA-MB-231 = test system: MDA-MB-231
HCT-15 = test system: HCT-15
HOP-92 = test system: HOP-92
SF-539 = test system: SF-539
HOP-62 = test system: HOP-62
SN12C = test system: SN12C
Malme-3M = test system: Malme-3M
K562 = test system: K562
RPMI-8226 = test system: RPMI-8226
CCRF-CEM = test system: CCRF-CEM
UACC-62 = test system: UACC-62
RXF 393 = test system: RXF 393
SK-MEL-2 = test system: SK-MEL-2
HT-29 = test system: HT-29
TK-10 = test system: TK-10
U-251 = test system: U-251
SK-MEL-28 = test system: SK-MEL-28
MDA-N = test system: MDA-N
SR = test system: SR
EKVX = test system: EKVX
OVCAR-5 = test system: OVCAR-5
SNB-75 = test system: SNB-75
SK-MEL-5 = test system: SK-MEL-5
UACC-257 = test system: UACC-257
OVCAR-3 = test system: OVCAR-3
HCC 2998 = test system: HCC 2998
SF-268 = test system: SF-268
HL-60 = test system: HL-60
MDA-MB-435 = test system: MDA-MB-435
MCF7 = test system: MCF7
ACHN = test system: ACHN
Hs-578T = test system: Hs-578T
SF-295 = test system: SF-295
SK-OV-3 = test system: SK-OV-3
OVCAR-4 = test system: OVCAR-4
A498 = test system: A498
NCI/ADR-RES = test system: NCI/ADR-RES
HCT-116 = test system: HCT-116
SW-620 = test system: SW-620
UO-31 = test system: UO-31
M14 = test system: M14
786-0 = test system: 786-0
IGROV-1 = test system: IGROV-1
NCI-H522 = test system: NCI-H522
LOX IMVI = test system: LOX IMVI
PC-3 = test system: PC-3

## O=C1CCCc2cc3c(cc21)CC1(C3)Cc2cc3c(cc2C1)C(=O)CCC3
NCI-H23
  GI50: 2.2 µM (inactive)
BT-549
  GI50: 0.653 µM (active)
CAKI-1
  GI50: 1.91 µM (inactive)
NCI-H460
  GI50: 1.22 µM (inactive)
MOLT-4
  GI50: 1 µM (active)
OVCAR-8
  GI50: 3.04 µM (inactive)
KM12
  GI50: 0.493 µM (active)
COLO 205
  GI50: 1.33 µM (inactive)
A549
  GI50: 1.39 µM (inactive)
T47D
  GI50: 9.48 µM (inactive)
NCI-H226
  GI50: 2.7 µM (inactive)
DU-145
  GI50: 2.18 µM (inactive)
SNB-19
  GI50: 4.58 µM (inactive)
MDA-MB-231
  GI50: 3.16 µM (inactive)
HCT-15
  GI50: 0.662 µM
HOP-92
  GI50: 6.78 µM (inactive)
SF-539
  GI50: 1.12 µM (active)
HOP-62
  GI50: 2.29 µM (inactive)
SN12C
  GI50: 4.46 µM (inactive)
Malme-3M
  GI50: 0.798 µM (active)
K562
  GI50: 0.396 µM (active)
RPMI-8226
  GI50: 0.746 µM (active)
CCRF-CEM
  GI50: 0.998 µM (active)
UACC-62
  GI50: 0.531 µM (active)
RXF 393
  GI50: 1.45 µM (inactive)
SK-MEL-2
  GI50: 1.57 µM (inactive)
HT-29
  GI50: 0.743 µM (active)
TK-10
  GI50: 1.81 µM (inactive)
U-251
  GI50: 1.64 µM (inactive)
SK-MEL-28
  GI50: 3.23 µM (inactive)
MDA-N
  GI50: 0.214 µM (active)
SR
  GI50: 0.106 µM (active)
EKVX
  GI50: 5.48 µM (inactive)
OVCAR-5
  GI50: 4.54 µM (inactive)
SNB-75
  GI50: 2.2 µM (inactive)
SK-MEL-5
  GI50: 0.532 µM (active)
UACC-257
  GI50: 2.28 µM (inactive)
OVCAR-3
  GI50: 1.57 µM (inactive)
HCC 2998
  GI50: 2.34 µM (inactive)
SF-268
  GI50: 3.37 µM (inactive)
HL-60
  GI50: 0.368 µM (active)
MDA-MB-435
  GI50: 0.231 µM (active)
MCF7
  GI50: 0.484 µM (active)
ACHN
  GI50: 2.86 µM (inactive)
Hs-578T
  GI50: 2.64 µM (inactive)
SF-295
  GI50: 0.923 µM (active)
SK-OV-3
  GI50: 3.52 µM (inactive)
OVCAR-4
  GI50: 4.43 µM (inactive)
A498
  GI50: 5.45 µM (inactive)
NCI/ADR-RES
  GI50: 0.769 µM (active)
HCT-116
  GI50: 0.706 µM (active)
SW-620
  GI50: 0.815 µM (active)
UO-31
  GI50: 5.55 µM (inactive)
M14
  GI50: 0.536 µM (active)
786-0
  GI50: 2.58 µM (inactive)
IGROV-1
  GI50: 1.38 µM (inactive)
NCI-H522
  GI50: 0.679 µM (active)
LOX IMVI
  GI50: 1.48 µM (inactive)
PC-3
  GI50: 1.24 µM (inactive)

## O=C1OC(CCCN2CCCCC2)(c2ccccc2)CC12CCCC2 (configuration not stated)
NCI-H23
  GI50: > 89.7 µM (inactive)
BT-549
  GI50: > 100 µM (inactive)
CAKI-1
  GI50: > 100 µM (inactive)
NCI-H460
  GI50: 89.1 µM (inactive)
MOLT-4
  GI50: 40 µM (inactive)
OVCAR-8
  GI50: > 100 µM (inactive)
KM12
  GI50: > 100 µM (inactive)
COLO 205
  GI50: 32.3 µM (inactive)
A549
  GI50: > 100 µM (inactive)
T47D
  GI50: > 100 µM (inactive)
NCI-H226
  GI50: > 96.6 µM (inactive)
DU-145
  GI50: > 100 µM (inactive)
SNB-19
  GI50: > 100 µM (inactive)
MDA-MB-231
  GI50: > 75.9 µM (inactive)
HCT-15
  GI50: > 95.3 µM
HOP-92
  GI50: 2.1 µM (inactive)
SF-539
  GI50: 49.1 µM (inactive)
HOP-62
  GI50: > 100 µM (inactive)
SN12C
  GI50: > 100 µM (inactive)
Malme-3M
  GI50: 35.6 µM (inactive)
K562
  GI50: 40.5 µM (inactive)
RPMI-8226
  GI50: 50 µM (inactive)
CCRF-CEM
  GI50: 54.5 µM (inactive)
UACC-62
  GI50: 61.4 µM (inactive)
RXF 393
  GI50: 80 µM (inactive)
SK-MEL-2
  GI50: > 100 µM (inactive)
HT-29
  GI50: 37.3 µM (inactive)
TK-10
  GI50: > 100 µM (inactive)
U-251
  GI50: > 100 µM (inactive)
SK-MEL-28
  GI50: 22.3 µM (inactive)
MDA-N
  GI50: > 77.6 µM (inactive)
SR
  GI50: 34.4 µM (inactive)
EKVX
  GI50: > 100 µM (inactive)
OVCAR-5
  GI50: > 87.1 µM (inactive)
SNB-75
  GI50: 23 µM (inactive)
SK-MEL-5
  GI50: 18.7 µM (inactive)
UACC-257
  GI50: 23.1 µM (inactive)
OVCAR-3
  GI50: > 100 µM (inactive)
HCC 2998
  GI50: 66.1 µM (inactive)
SF-268
  GI50: > 100 µM (inactive)
HL-60
  GI50: 52.5 µM (inactive)
MDA-MB-435
  GI50: 67.8 µM (inactive)
MCF7
  GI50: 58.2 µM (inactive)
ACHN
  GI50: > 100 µM (inactive)
Hs-578T
  GI50: 63.1 µM (inactive)
SF-295
  GI50: > 84.9 µM (inactive)
SK-OV-3
  GI50: > 100 µM (inactive)
OVCAR-4
  GI50: 97.9 µM (inactive)
A498
  GI50: 57.4 µM (inactive)
NCI/ADR-RES
  GI50: > 100 µM (inactive)
HCT-116
  GI50: 73.1 µM (inactive)
SW-620
  GI50: > 100 µM (inactive)
UO-31
  GI50: 73.1 µM (inactive)
M14
  GI50: 17.7 µM (inactive)
786-0
  GI50: > 100 µM (inactive)
IGROV-1
  GI50: > 100 µM (inactive)
NCI-H522
  GI50: > 100 µM (inactive)
LOX IMVI
  GI50: > 72.1 µM (inactive)
PC-3
  GI50: > 100 µM (inactive)

## COc1ccc2nc(N/N=C/C(C)=N/Nc3cc(C)c4cc(OC)ccc4n3)cc(C)c2c1
NCI-H23
  GI50: 23.1 µM (inactive)
BT-549
  GI50: 74.3 µM (inactive)
CAKI-1
  GI50: 49.4 µM (inactive)
NCI-H460
  GI50: 14.7 µM (inactive)
MOLT-4
  GI50: 21.2 µM (inactive)
OVCAR-8
  GI50: 19.1 µM (inactive)
KM12
  GI50: 18.7 µM (inactive)
COLO 205
  GI50: 23.2 µM (inactive)
A549
  GI50: 19.7 µM (inactive)
T47D
  GI50: 29.8 µM (inactive)
NCI-H226
  GI50: 45.6 µM (inactive)
DU-145
  GI50: 18.1 µM (inactive)
SNB-19
  GI50: 23.1 µM (inactive)
MDA-MB-231
  GI50: 19 µM (inactive)
HCT-15
  GI50: 9.75 µM
HOP-92
  GI50: 36.2 µM (inactive)
SF-539
  GI50: 17.8 µM (inactive)
HOP-62
  GI50: 28.6 µM (inactive)
SN12C
  GI50: 23.9 µM (inactive)
Malme-3M
  GI50: 50.9 µM (inactive)
K562
  GI50: 3.9 µM (inactive)
RPMI-8226
  GI50: 7.33 µM (inactive)
CCRF-CEM
  GI50: 2.47 µM (inactive)
UACC-62
  GI50: 30.8 µM (inactive)
RXF 393
  GI50: 39.9 µM (inactive)
SK-MEL-2
  GI50: > 68.1 µM (inactive)
HT-29
  GI50: 12.7 µM (inactive)
TK-10
  GI50: 30.5 µM (inactive)
U-251
  GI50: 16.2 µM (inactive)
SK-MEL-28
  GI50: 35.2 µM (inactive)
MDA-N
  GI50: 23.7 µM (inactive)
SR
  GI50: 5.11 µM (inactive)
EKVX
  GI50: 19.2 µM (inactive)
OVCAR-5
  GI50: 27.4 µM (inactive)
SNB-75
  GI50: 21.9 µM (inactive)
SK-MEL-5
  GI50: 26.5 µM (inactive)
UACC-257
  GI50: 58.5 µM (inactive)
OVCAR-3
  GI50: 26.5 µM (inactive)
HCC 2998
  GI50: 20.1 µM (inactive)
SF-268
  GI50: 25.6 µM (inactive)
HL-60
  GI50: 18.5 µM (inactive)
MDA-MB-435
  GI50: 29 µM (inactive)
MCF7
  GI50: 14.3 µM (inactive)
ACHN
  GI50: 26.7 µM (inactive)
Hs-578T
  GI50: 31 µM (inactive)
SF-295
  GI50: 25.1 µM (inactive)
SK-OV-3
  GI50: > 83.8 µM (inactive)
OVCAR-4
  GI50: 18.5 µM (inactive)
A498
  GI50: > 68.2 µM (inactive)
NCI/ADR-RES
  GI50: 22 µM (inactive)
HCT-116
  GI50: 14.2 µM (inactive)
SW-620
  GI50: 17 µM (inactive)
UO-31
  GI50: > 80.4 µM (inactive)
M14
  GI50: 39.1 µM (inactive)
786-0
  GI50: 14 µM (inactive)
IGROV-1
  GI50: 21 µM (inactive)
NCI-H522
  GI50: 20.3 µM (inactive)
LOX IMVI
  GI50: 22.6 µM (inactive)
PC-3
  GI50: 22.3 µM (inactive)
